Results published in patent publication US12673930B2, “Thiophene HSD17B13 inhibitors and uses thereof” (INIPHARM, INC., priority 2020, dated 2026).

How the values were obtained:
HSD17B13 enzyme [1] = target: T1, HSD17B13 enzyme (Homo sapiens, UniProt Q7Z5P4); experiment: LC/MS estrone detection assay (conversion of estradiol to estrone by HSD17B13); format: biochemical; settings: substrate 4 μM estradiol, 6 mM NAD+, 30 nM HSD17B13 enzyme, 2 hours at 26.5° C
T1 construct: His; made in house; host or cells: E. coli
T1 sequence (Q7Z5P4 20-300): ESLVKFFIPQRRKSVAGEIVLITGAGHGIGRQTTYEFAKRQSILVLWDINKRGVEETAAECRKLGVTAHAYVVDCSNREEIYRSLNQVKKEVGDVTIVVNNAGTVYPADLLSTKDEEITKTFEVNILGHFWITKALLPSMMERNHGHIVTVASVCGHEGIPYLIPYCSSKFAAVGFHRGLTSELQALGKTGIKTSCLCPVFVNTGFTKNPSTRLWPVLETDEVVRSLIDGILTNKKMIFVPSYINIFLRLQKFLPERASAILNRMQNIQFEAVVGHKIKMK
Method: The liquid chromatography/mass spectrometry (LC/MS) estrone detection assay monitors the conversion of estradiol to estrone by HSD17B13. This assay was performed in a 96 wp format (Eppendorf deep well Plate 96/500) in an 80 μl reaction volume containing: 4 μM estradiol (E2; Cayman; Ser. No. 10/006,315); 6 mM NAD^+ (Sigma; #N0623), and 30 nM HSD17B13 enzyme (in-house; E. coli expressed His-tagged, purified, soluble protein), in a buffer containing 1M potassium phosphate buffer pH 7.4 and 0.5% vehicle (DMSO). Reactions were incubated for 2 hours at 26.5° C., and estradiol (E2) conversion to estrone (E1) was quantitated by LC-MS/MS based analyte detection for E1 using LCMS grade reagents. Reactions were terminated by the addition of two volumes of acetonitrile (MeCN; LCMS grade; CAS #75/05/8) containing deuterated (D4)-E1 as internal standard (Clear Synth; #CS-T-54273; 500 ng/mL final concentration). Samples were applied to pre-prepared Bond Elut-C18 extraction cartridges (3 mL; Agilent; Ser. No. 12/102,028), and washed and eluted in MeCN. Eluates were dried under nitrogen and re-suspended in 60% methanol (LCMS grade methanol; CAS #67/56/1) before submission for analysis. Standard curves for E1 were included for quantification. Analysis of samples was undertaken on a XBridge BEH C18 column (Waters; #186003033) using 0.1% Diethyl Amine in MeCN (mobile phase A; DEA CAS #109-89-7) and 0.1% Diethyl Amine in milli-Q water (mobile phase B) in a 3 min gradient up to 25% B. Analytes were detected in negative mode using MRM analysis, with E2 having a RT of 1.85 min and E1 having a RT of 2 min. Activity of the enzyme in the absence of NAD^+, was subtracted from samples to yield values for specific enzyme activity. Enzyme activity in the presence of test samples was expressed as a percentage of the uninhibited enzyme activity, and plotted versus inhibitor concentration. Non-linear regression was performed using the Morrison equation (see below) for tight binding inhibitors on GraphPad Prism software (GraphPad Software, La Jolla, Calif.). All assessments were undertaken in duplicate evaluations which were pooled during the extraction process and subsequently injected as duplicates for LC-MS/MS analysis. Y=Vo*(1−((((Et+X+Q)−(((Et+X+Q)^2)−4*Et*X)^0.5))/(2*Et))) Morrison equation:
Y=Activity in the presence of inhibitor; Vo=Activity in absence of inhibitor; Et=Total enzyme concentration; X=inhibitor concentration; and Q=(Ki*(1+(S/Km))), where Ki is the inhibition constant, Km is the Michaelis constant, and S is the substrate concentration.

HSD17B13 enzyme [2] = target: T1, HSD17B13 enzyme; experiment: NADH detection assay (fluorescence based Leukotriene B3 (LTB3) assay) for HSD17B13 activity; format: biochemical; settings: substrate 25 μM LTB3, 3 mM NAD+, 125 nM HSD17B13 enzyme, 1 hour at 26.5° C
Method: The fluorescence based Leukotriene B3 (LTB3) assay monitors the fluorescence of NADH, which is generated from NAD+ during the dehydrogenation of the substrate LTB3. The reactions were performed in a 384-well plates (Greiner; #655076) in a 20 μl reaction volume containing the following reagents (final concentrations): 25 μM LTB3 (Cayman; #20109); 3 mM NAD^+ (Sigma; #N0623); 125 nM HSD17B13 enzyme (in-house; E. coli expressed His-tagged, purified, soluble protein); 1 M potassium phosphate buffer, pH 7.4; and 1% DMSO. Reactions were initiated by co-addition of NAD+ and enzyme, and monitored for 1 hour at 26.5° C. Generation of NADH was measured as the fluorescence signal (Excitation at 340 nm and Emission at 445 nm) at 1 hour minus the baseline fluorescence at t=0. Fluorescence signals in the absence of LTB3 (negative control values), were subtracted from all values so that the results reflected substrate-dependent production of NADH. NADH standards were included to allow the conversion of relative fluorescence units into rates of enzyme activity. Enzyme activity in the presence of test compounds was expressed as a percentage of the uninhibited enzyme activity, and plotted versus inhibitor concentration. Non-linear regression was performed using a four-parameter logistic model and Microsoft Excel Solver® software. Ten concentrations of inhibitor were tested in duplicate (in the range of 30 μM-2.5 nM). Two independent concentration response assays were performed and the geometric mean is reported, =/−the SEM.

Row | SMILES | IC50 (HSD17B13 enzyme [1]) [µM] | IC50 (HSD17B13 enzyme [2]) [µM]
1 | COc1ccccc1CCNC(=O)c1sc(Cl)cc1NC(=O)c1ccc(O)c(Cl)c1 [Example 17, 5-chloro-3-(3-chloro-4-hydroxybenzamido)-N-(2-methoxyphenethyl)thiophene-2-carboxamide] | ≤ 0.1 | ≤ 1
2 | COc1ccccc1CNC(=O)c1sccc1NC(=O)c1ccc(O)c(Cl)c1 [Example 8, 3-(3-chloro-4-hydroxybenzamido)-N-(2-methoxybenzyl)thiophene-2-carboxamide] | ≤ 0.1 | ≤ 1
3 | CC(C)CNC(=O)c1sccc1NC(=O)c1ccc(O)c(Cl)c1 [Example 2, 3-(3-chloro-4-hydroxybenzamido)-N-isobutylthiophene-2-carboxamide] | ≤ 0.1 | ≤ 1
4 | COc1ccccc1CCNC(=O)c1sc2nccnc2c1NC(=O)c1ccc(O)c(Cl)c1 [Example 12, 7-(3-chloro-4-hydroxybenzamido)-N-(2-methoxyphenethyl)thieno[2,3-b]pyrazine-6-carboxamide] | 0.1 to 1 | 1 to 5
5 | COc1ccncc1CCNC(=O)c1sccc1NC(=O)c1ccc(O)c(Cl)c1 [Example 7, 3-(3-chloro-4-hydroxybenzamido)-N-(2-(4-methoxypyridin-3-yl)ethyl)thiophene-2-carboxamide] | 0.1 to 1 | ≤ 1
6 | COc1ccccc1CCNC(=O)c1c(NC(=O)c2ccc(O)c(F)c2)sc(C)c1C [Example 16, 2-(3-fluoro-4-hydroxybenzamido)-N-(2-methoxyphenethyl)-4,5-dimethylthiophene-3-carboxamide] | ≤ 0.1 | ≤ 1
7 | COc1ccccc1CCNC(=O)c1sccc1NC(=O)Cc1ccc(O)c(Cl)c1 [Example 20, 3-(2-(3-chloro-4-hydroxyphenyl)acetamido)-N-(2-methoxyphenethyl)thiophene-2-carboxamide] | 0.1 to 1 | > 10
8 | COc1ccccc1CCNC(=O)c1ccsc1NC(=O)c1ccc(O)c(Cl)c1 [Example 13, 2-(3-chloro-4-hydroxybenzamido)-N-(2-methoxyphenethyl)thiophene-3-carboxamide] | ≤ 0.1 | ≤ 1
9 | COc1ccccc1CCNC(=O)c1sccc1NC(=O)c1ccc2[nH]nc(Cl)c2c1 [Example 28, 3-chloro-N-(2-((2-methoxyphenethyl)carbamoyl)thiophen-3-yl)-1H-indazole-5-carboxamide] | > 10 | > 10
10 | COc1ccccc1CCNC(=O)c1sccc1NC(=O)c1ccc(S(=O)(=O)NC(=O)c2ccccc2)c(Cl)c1 [Example 24, 3-(4-(N-benzoylsulfamoyl)-3-chlorobenzamido)-N-(2-methoxyphenethyl)thiophene-2-carboxamide] | 1 to 10 | > 10
11 | COc1ccccc1CCNC(=O)c1sccc1NC(=O)c1ccncc1 [Example 10, N-(2-((2-methoxyphenethyl)carbamoyl)thiophen-3-yl)isonicotinamide] | > 10 | > 10
12 | CCNC(=O)c1sccc1NC(=O)c1ccc(O)c(Cl)c1 [Example 5, 3-(3-chloro-4-hydroxybenzamido)-N-ethylthiophene-2-carboxamide] | 0.1 to 1 | ≤ 1
13 | COc1ccccc1CCNC(=O)c1sccc1NC(=O)c1ccc(O)c(Cl)c1 [Example 1, 3-(3-chloro-4-hydroxybenzamido)-N-(2-methoxyphenethyl)thiophene-2-carboxamide] | ≤ 0.1 | ≤ 1
14 | COc1ccccc1CCNC(=O)c1c(NC(=O)c2ccc(O)c(Cl)c2)sc2c1CCCC2 [Example 14, 2-(3-chloro-4-hydroxybenzamido)-N-(2-methoxyphenethyl)-4,5,6,7-tetrahydrobenzo[b]thiophene-3-carboxamide] | 0.1 to 1 | 1 to 5
15 | COc1ccccc1CCNC(=O)c1sccc1NC(=O)c1ccc(O)c(F)c1 [Example 30, 3-(3-fluoro-4-hydroxybenzamido)-N-(2-methoxyphenethyl)thiophene-2-carboxamide] | ≤ 0.1 | ≤ 1
16 | COc1ccccc1CCNC(=O)c1sccc1NC(=O)c1ccc(OC(F)(F)C(=O)O)c(Cl)c1 [Example 25, 2-(2-chloro-4-((2-((2-methoxyphenethyl)carbamoyl)thiophen-3-yl)carbamoyl)phenoxy)-2,2-difluoroacetic acid] | 1 to 10 | > 10
17 | COc1ccccc1CCNC(=O)c1sc2ccccc2c1NC(=O)c1ccc(O)c(Cl)c1 [Example 31, 3-(3-chloro-4-hydroxybenzamido)-N-(2-methoxyphenethyl)benzo[b] thiophene-2-carboxamide] | 0.1 to 1 | ≤ 1
18 | COc1ccccc1CCNC(=O)c1sccc1NC(=O)c1ccc(O)c(C(F)(F)F)c1 [Example 33, 3-(4-hydroxy-3-(trifluoromethyl)benzamido)-N-(2-methoxyphenethyl)thiophene-2-carboxamide] | ≤ 0.1 | > 10
19 | COc1ccccc1CCNC(=O)c1sccc1NC(=O)c1ccc(S(N)(=O)=O)c(Cl)c1 [Example 26, 3-(3-chloro-4-sulfamoylbenzamido)-N-(2-methoxyphenethyl)thiophene-2-carboxamide] | > 10 | > 10
20 | O=C(Nc1ccsc1C(=O)NC1COc2ccccc2C1)c1ccc(O)c(Cl)c1 (stereo not drawn) [Example 6, 3-(3-chloro-4-hydroxybenzamido)-N-(chroman-3-yl)thiophene-2-carboxamide] | ≤ 0.1 | ≤ 1
21 | O=C(Nc1ccsc1C(=O)NCCc1ccccc1F)c1ccc(O)c(Cl)c1 [Example 9, 3-(3-chloro-4-hydroxybenzamido)-N-(2-fluorophenethyl)thiophene-2-carboxamide] | ≤ 0.1 | ≤ 1
22 | O=C(Nc1ccsc1C(=O)NCc1c[nH]c2ccccc12)c1ccc(O)c(Cl)c1 [Example 4, N-((1H-indol-3-yl)methyl)-3-(3-chloro-4-hydroxybenzamido)thiophene-2-carboxamide] | ≤ 0.1 | ≤ 1
23 | CC(C)(C)CCNC(=O)c1sc2cnccc2c1NC(=O)c1ccc(O)c(F)c1 [Example 19, N-(3,3-dimethylbutyl)-3-(3-fluoro-4-hydroxybenzamido)thieno[2,3-c]pyridine-2-carboxamide] | 0.1 to 1 | > 10
24 | COc1ccccc1CCNC(=O)c1sccc1NC(=O)c1ccc(N2CCC(C(=O)O)C2)c(Cl)c1 (stereo not drawn) [Example 29, 1-(2-chloro-4-((2-((2-methoxyphenethyl)carbamoyl)thiophen-3-yl)carbamoyl)phenyl)pyrrolidine-3-carboxylic acid] | 1 to 10 | > 10
